What was measured:
ob/ob mice [1] = test: Intranasal (IN) efficacy, food intake in fasted ob/ob mice; type: in vivo
Protocol: Subjects: ob/ob mice; approximately 10 weeks old males; body weight 50-60 grams.
The mice were divided into the following groups: • 1) Mice received only vehicle. The vehicle was one of the following: water, 10 mM phosphate buffer, 5% captisol in 10 mM phosphate buffer (see Table 1 for details). • 2) Mice received a compound of an embodiment of the present invention at a dosage of 1 mg/kg. • 3) Mice received a compound of an embodiment of the present invention at a dosage of 3 mg/kg. • 4) Mice received a compound of an embodiment of the present invention at a dosage of 6 mg/kg. n=6-8 animals per group
Note: For compound 1 and compound 2, the 1 mg/kg group was not included.
Animals were fasted overnight (˜16 hours), and an MC4-R agonist compound as described in Tables 1-3 was administered at 8:30 am next day. The administration volume was 20-25 μl/50 grams of body weight. […]
IN Efficacy Procedure: Mice were fasted overnight. […] Food weight was measured at 1, 2, 3, 4, 6, and 8 hours following the dosing. […]
(§1) IN Efficacy Procedure: Mice were fasted overnight. […] Food weight was measured at 1, 2, 3, 4, 6, and 8 hours following the dosing.
as §1
IN Efficacy Procedure: Mice were fasted overnight. […] Food weight was measured at 1, 2, 3, 4, and 6 hours following the dosing.

ob/ob mice [2] = test: Oral (PO) efficacy, food intake in fasted ob/ob mice; type: in vivo; details: 30 mg/kg given orally, FIG. 1B
Protocol: Subjects: ob/ob mice, ˜10 weeks old males. Body weight ˜50 grams.
PO Efficacy Groups: • 1) Vehicle=water • 2) Compound 1=200 μl of 2.5 mg/ml (10 mg/kg) • 3) Compound 1=200 μl of 7.5 mg/ml (30 mg/kg) n=8/group fasted
PO Efficacy Procedure: Mice were fasted overnight. At about 9:00 am the next morning, they were dosed with 200 μl of vehicle or compound solution by oral gavage. Mice were fed with pre-weighed food immediately after dosing, and had access to water the entire time. Food weight was measured at 1, 2, 3, 4, 6, and 24 hours following the dosing.

[3] = acute intranasal, humans; ACTH4-10 1 mg, desacetyl-αMSH equimolar 1.68 mg; cited from earlier work
[4] = humans, cited from earlier work; for body fat: intranasal administration
[5] = after intranasal administration

Row | Molecule | reduction in cumulative food intake (ob/ob mice [1]; 3 mg/kg administered intranasally, FIG. 1A) [%] | increase in biological effect, intranasal versus oral, dose-normalised (ob/ob mice [1]; ((59%/39%)÷(3/30)), 3 mg/kg intranasal vs 30 mg/kg oral) | decrease in cumulative food intake (ob/ob mice [2]) [%] | processing negativity (PN) of the ERP over frontal and central cortical areas [3] | body fat [4] | insulin levels [4, 5] | plasma leptin levels [4, 5]
1 | COc1ccc(CCNC(=O)c2ccc(N/C(=N/[C@H]3C[C@H]4C[C@@H]([C@@H]3C)C4(C)C)N3CCN[C@@H](C)C3)cc2)c(F)c1 [Compound 1] | 59 | approximately 15.1 times | 39 | – | – | – | –
2 | desacetyl-αMSH | – | – | – | ineffective | nonsignificant | – | –
3 | melanocyte stimulating hormone/adrenocorticotropin4-10 (MEHFRWG; Corticotropin; UniProt P01189 141-147, looked up, fragment) [MSH/ACTH4-10] | – | – | – | reduced | reduced body fat | decreased | decreased

Reference: patent US20070004743A1, “Intranasal administration of mc4-r agonists” (priority 2002, published 2007)
